Paper PMC9604483, “Crystal Structure of CYP3A4 Complexed with Fluorol Identifies the Substrate Access Channel as a High-Affinity Ligand Binding Site” (International Journal of Molecular Sciences, 2022)

Tests used:
T224A CYP3A4 [1] = biological target: T1, T224A CYP3A4 (Homo sapiens, UniProt P08684, T224A); test: Spectral (absorbance) equilibrium titrations of fluorol with CYP3A4; format: binding
T1 construct: made in house
Description: (§1) Because fluorol strongly absorbs in the Soret region (Figure 3A), we conducted reverse rather than direct titrations by adding small amounts of CYP3A4 to the experimental cuvette with 3 μM fluorol solution and to a buffer-containing reference cuvette. Based on the difference absorbance spectra, two spectral phases were distinguished. During the first phase, when [CYP3A4] < 0.5 μM and [fluorol]:[CYP3A4] […], spectral perturbations were detected only in the Soret band (red spectra in Figure 3B,C). The lack of changes in the 380–390 nm region implies that the heme remained in a low-spin state. At [CYP3A4] > 0.5, a decrease in the Soret absorption was accompanied by the appearance of a 385 nm peak, indicating a low-to-high spin transition in the heme. For WT CYP3A4, the first spectral phase was more pronounced, with a ~3-fold larger decrease in the Soret band, whereas the 385 nm peak formed during the second phase was ~20% higher compared to that in the T224A mutant. The difference in the total absorbance change is better seen in Figure 3D, where titration plots for WT and T224A CYP3A4 are compared. The best fittings to the binding isotherms were obtained with a two-binding-site model.
(§2) Spectral Titrations—Equilibrium ligand binding to CYP3A4 was monitored using a Cary 300 spectrophotometer at 23 °C in 50 mM phosphate, pH 7.4, containing 0.6 mg/mL β-cyclodextrin (Santa Cruz Biotechnology, Dallas, TX, USA), using a 10 mm light path cuvette. Ten millimolar stock of fluorol (2-butyl-6-(butylamino)-1H-benzo[de]isoquinoline-1,3(2H)-dione; Exciton, Dayton, OH, USA) dissolved in methanol (ε440 nm = 14.0 mM^−1·cm^−1) was diluted with DMSO to prepare 1–3 mM working solutions. During spectral titrations, small aliquots of WT or T224A CYP3A4 were added to the experimental cuvette with a 3 μM fluorol solution (made from 1 mM stock in DMSO) and to the reference cuvette that contained buffer and the same amount of solvent. Difference absorbance spectra were recorded 5–10 min after fluorol addition, when no further spectral perturbations could be detected. The observed absorbance changes (peak-to-trough difference) were plotted vs. […] and fitted using a nonlinear regression analysis to derive dissociation constants.

WT CYP3A4 [2] = biological target: T2, WT CYP3A4 (Homo sapiens, UniProt P08684); test: as above; format: binding
T2 construct: made in house
Description: as §1, §2

WT CYP3A4 [3] = biological target: T2, WT CYP3A4; test: Equilibrium fluorescence titrations of fluorol with CYP3A4; format: binding
From the text: Equilibrium fluorescence titrations were used as an alternative approach for Kd determination. One advantage of fluorol is a large Stokes shift (difference between the absorption and emission maxima; Figure S1B) and sensitivity to environment, as emission becomes more intense and blue-shifted when polarity of the medium decreases (Figure S1C). Moreover, spectral overlap between the emission band of fluorol and Q-bands of CYP3A4 enables fluorescence resonance energy transfer (FRET) to the heme. This process dominates during complex formation with CYP3A4, because emission is decreased rather than enhanced when fluorol transfers from an aqueous media to a more hydrophobic protein environment. One complication that we encountered during fluorescence measurements was a nonspecific decrease in emission, presumably due to adhesion of fluorol to plastic pipette tips. To overcome this problem, before each titration, small amounts of buffer were added to fluorol solution in 1–2 μL increments (8–10 additions; <2% of volume change) and mixed using the same low-retention pipette tip. When no further changes in fluorescence intensity were observed, the same tip was used for addition and mixing of CYP3A4 aliquots (Figure 4A). […] This means that the low-affinity site in T224A CYP3A4 is less solvated and/or lies closer to the heme.
As a result, in GS8-bound CYP3A4, fluorol might still be able to bind to the channel, albeit in a different orientation (Figure S2C). […] Thus, regardless of what ligand is bound, only the low-affinity site was available for fluorol in both WT and T224A CYP3A4.
Fluorescence measurements—Equilibrium fluorescence titrations were conducted on a Hitachi F-7000 fluorescence spectrophotometer at 23 °C in 50 mM phosphate buffer, pH 7.4, containing 0.6 mg/mL β-cyclodextrin. Fluorol solution (1 μM) was first titrated with small amounts of buffer using a low-retention plastic pipette tip until no further changes in fluorescence were detected (λex = 440 nm); then, the same tip was used for CYP3A4 additions (6 μM final concentration). […] CYP3A4-dependent changes in fluorescence intensity were plotted vs. CYP3A4 concentration, and Kd values were derived from nonlinear regression fittings.

T224A CYP3A4 [4] = biological target: T1, T224A CYP3A4; test: Fluorol oxidation in a reconstituted system with cytochrome P450 reductase; format: in vitro ADME; conditions: 25 μM fluorol, 1 μM CYP3A4, 2 μM CPR, 37 °C; substrate/product ratio
Description: This possibility was tested in a reconstituted system with cytochrome P450 reductase. […] The mass shift of +16 Da implies that fluorol undergoes a single-site oxidation.
Fluorol metabolism—Oxidation of fluorol by WT and T224A CYP3A4 was assessed in a reconstituted system with cytochrome P450 reductase. Reaction was carried out at 37 °C in 100 mM potassium phosphate, pH 7.4, containing catalase and superoxide dismutase (2 units/mL each), 1 μM WT or T224A CYP3A4, 2 μM CPR, NADPH regenerating system (10 mM glucose, 0.2 mM NADP^+, and 2 units/mL glucose-6-phosphate dehydrogenase), and 25 μM fluorol. After addition of 80 μM NADPH, samples were gently shaken, and 0.5 mL aliquots were taken in 15 min intervals. The reaction was stopped by adding 2 mL of dichloromethane. After 30 s vortexing, 1 mL of 0.3 M NaCl was added, and the sample was vortexed again and centrifuged for 10 min at 3000× g and 4 °C. The bottom organic phase (1 mL) was transferred to a glass vial, evaporated under the stream of nitrogen, and dissolved in 150 μL of methanol. Samples were analyzed by electrospray ionization mass spectroscopy using a Micromass LCP Premier mass spectrometer (Waters, Milford, MA, USA) in the negative ion mode, with 0.2 mL/min methanol flow. Chromatogram analysis and integrations were performed with Waters MassLynx MS software.

[5] = design: method as in PMID 18831537; conditions: cited from earlier work

T2 sequence (P08684 with tags, fused parts or gaps): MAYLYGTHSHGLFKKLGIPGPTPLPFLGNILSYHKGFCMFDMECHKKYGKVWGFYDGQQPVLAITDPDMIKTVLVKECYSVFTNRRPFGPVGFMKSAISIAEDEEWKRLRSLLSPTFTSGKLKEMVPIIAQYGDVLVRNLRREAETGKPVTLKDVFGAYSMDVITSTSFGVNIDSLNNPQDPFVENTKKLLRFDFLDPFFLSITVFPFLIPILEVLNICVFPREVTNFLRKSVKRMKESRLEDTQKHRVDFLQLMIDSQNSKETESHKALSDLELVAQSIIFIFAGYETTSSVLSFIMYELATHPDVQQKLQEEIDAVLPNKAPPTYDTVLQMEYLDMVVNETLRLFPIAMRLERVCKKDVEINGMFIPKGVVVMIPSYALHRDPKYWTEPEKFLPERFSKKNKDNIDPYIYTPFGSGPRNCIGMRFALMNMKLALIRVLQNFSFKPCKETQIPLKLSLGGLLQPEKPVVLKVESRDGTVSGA
T1 sequence (P08684 with tags, fused parts or gaps T224A): as the sequence (P08684 with tags, fused parts or gaps) above, with T204A counted along it

SMILES: CCCCNc1ccc2c3c(cccc13)C(=O)N(CCCC)C2=O [fluorol, 2-butyl-6-(butylamino)-1H-benzo[de]isoquinoline-1,3(2H)-dione]
- Decrease in affinities when the hydroxyl group in Thr224 is eliminated (T224A CYP3A4 [1]; T224A vs WT, spectrophotometric Kd): 25–37%
- Kd at 3 μM (T224A CYP3A4 [1]; human, ligand-free T224A mutant CYP3A4 protein in buffer, pH 7.4, ligand-free T224A CYP3A4, read-out: Kd, spectrophotometric, low-affinity site): 6600 ± 800 nM
- Percentage of the absorbance change due to binding of fluorol to the high-affinity site (T224A CYP3A4 [1]; ligand-free T224A CYP3A4): 14%
- Kd (T224A CYP3A4 [1]; ligand-free T224A CYP3A4, read-out: Kd, spectrophotometric, high-affinity site): 670 ± 120 nM
- Difference in affinity between the two independent fluorol binding sites (WT CYP3A4 [2]; WT and T224A CYP3A4, spectrophotometric Kd): 8–10 fold
- Decrease in the Soret band during first spectral phase, WT relative to T224A (WT CYP3A4 [2]; [CYP3A4] < 0.5 μM): ~ 3 fold
- Height of 385 nm peak formed during second phase, WT compared to T224A (WT CYP3A4 [2]; higher in WT): ~ 20%
- Kd at 3 μM (WT CYP3A4 [2]; human, ligand-free WT CYP3A4 protein in buffer, pH 7.4, read-out: Kd, spectrophotometric, low-affinity site): 4200 ± 500 nM
- Percentage of the absorbance change due to binding of fluorol to the high-affinity site (WT CYP3A4 [2]; ligand-free WT CYP3A4): 28%
- Kd (WT CYP3A4 [2]; ligand-free WT CYP3A4, 3 μM fluorol, 23 °C, 50 mM phosphate pH 7.4, 0.6 mg/mL β-cyclodextrin, read-out: Kd, spectrophotometric, high-affinity site): 500 ± 40 nM
- Reduction of emission quenching (WT CYP3A4 [3]; GS8-bound WT CYP3A4 vs ligand-free): 10%
- Kd (WT CYP3A4 [3]; WT CYP3A4 in presence of 0.4 μM GS8, one-site model, read-out: Kd, fluorometric): 2100 ± 300 nM
- Kd (WT CYP3A4 [3]; WT CYP3A4 in presence of 0.4 μM RIT, one-site model, read-out: Kd, fluorometric): 4800 ± 600 nM
- Kd (WT CYP3A4 [3]; WT CYP3A4 in presence of 20 μM PRG, one-site model, read-out: Kd, fluorometric): 2400 ± 200 nM
- Kd at 1 μM (WT CYP3A4 [3]; human, ligand-free WT CYP3A4 protein in buffer, pH 7.4, ligand-free WT CYP3A4, read-out: Kd, fluorometric, low-affinity site): 2400 ± 400 nM
- Percentage of the fluorescence change due to binding of fluorol to the high-affinity site (WT CYP3A4 [3]; ligand-free WT CYP3A4): 25%
- Kd (WT CYP3A4 [3]; ligand-free WT CYP3A4, 1 μM fluorol, 23 °C, pH 7.4, read-out: Kd, fluorometric, high-affinity site): 150 ± 30 nM
- Reduction of emission quenching (WT CYP3A4 [3]; ritonavir-bound WT CYP3A4 vs ligand-free): 30%
- Efficiency of fluorol oxidation, mutant less efficient than WT (T224A CYP3A4 [4]): ~ 20%
- Aqueous solubility [5]: limited aqueous solubility
